Test results taken from patent US12419858B2, “Salt of terphenyl compound” (Taiho Pharmaceutical Co., Ltd., priority 2019, dated 2025).

Legend:
in vivo = test: in vivo
Method: Each drug was administered to the animal at a dose of 32 mg/5 mL/kg.

[1] = Solid stability test (accelerated test); details: for Purity, variation (Y) − (X) / Total mass of analogous substance, variation (Y) − (X): 4 weeks at 60° C. sealed versus before storage; for solid stability (in words): 4 weeks at 60° C.; for solid stability (in words) / Purity, 4 weeks after storage at 60° C. on sealed condition (Y) / Total mass of analogous substance, 4 weeks after storage at 60° C. on sealed condition (Y): sealed; for Purity, 4 weeks after storage at 60° C. on sealed condition (Y) / Total mass of analogous substance, 4 weeks after storage at 60° C. on sealed condition (Y) / Purity, before storage (X) / Total mass of analogous substance, before storage (X): HPLC; for Purity, 4 weeks after storage at 60° C. on sealed condition (Y) / Total mass of analogous substance, 4 weeks after storage at 60° C. on sealed condition (Y): 4 weeks at 60° C./ambient humidity
Method: Mass of analogous substance in the sample solution was measured by HPLC analysis.

[2] = Moisture absorption/desorption test; details: 25° C.; for hygroscopicity / moisture absorption-desorption behaviour (in words): 5% RH to 95% RH and back; for weight change at maximum (moisture absorption/desorption): relative humidity from 5 to 95%
Method: Moisture absorption/desorption test was carried out on the following test conditions. A dedicated quartz holder was filled with about 10 mg of sample, and a weight of the sample at each humidity was measured and recorded in a continuous manner under the following conditions.

Row | SMILES | Cmax (in vivo; rat, in vivo, 32 mg/kg) [nM] | Tmax (in vivo; rat, in vivo, 32 mg/kg) [h] | Purity, variation (Y) − (X) [1] | Total mass of analogous substance, variation (Y) − (X) [1] | solid stability (in words) [1] | Purity, 4 weeks after storage at 60° C. on sealed condition (Y) [1] [%] | Total mass of analogous substance, 4 weeks after storage at 60° C. on sealed condition (Y) [1] [%] | Purity, before storage (X) [1] [%] | Total mass of analogous substance, before storage (X) [1] [%] | hygroscopicity / moisture absorption-desorption behaviour (in words) [2] | hygroscopicity / moisture absorption-desorption behaviour (in words) ([2]; listed as free form) | weight change at maximum (moisture absorption/desorption) [2] | Cmax (in vivo; rats, dose of 32 mg/5 mL/kg) [nM] | Tmax (in vivo; rats, dose of 32 mg/5 mL/kg) [h] | solid stability (in words) ([1]; listed as benzoate) | AUC (in vivo; rats, dose of 32 mg/5 mL/kg) [µM·h]
1 | CC(C)(O)Cc1ccc(-c2ccc(C(=O)N3CC[C@H](N)C3)cc2-c2ccc(C#N)c(F)c2)c(F)c1 [free form of Compound A, 4-[5-[(3S)-3-aminopyrrolidine-1-carbonyl]-2-[2-fluoro-4-(2-hydroxy-2-methyl-propyl)phenyl]phenyl]-2-fluoro-benzonitrile] | 2560 | 4 | −0.37% | +0.37% | poor solid stability | 98.15 | 1.85 | 98.52 | 1.48 | had the characteristic of channel hydrate | characteristic of hygroscopicity | about +5.6 % w/w |  |  |  | 
2 | CC(C)(O)Cc1ccc(-c2ccc(C(=O)N3CC[C@H](N)C3)cc2-c2ccc(C#N)c(F)c2)c(F)c1.O=C(O)c1ccccc1 [benzoic acid salt of Compound A, benzoic acid salt of 4-[5-[(3S)-3-aminopyrrolidine-1-carbonyl]-2-[2-fluoro-4-(2-hydroxy-2-methyl-propyl)phenyl]phenyl]-2-fluoro-benzonitrile] |  |  | +0.13% | −0.13% | almost no analogous substance was generated | 98.06 | 1.94 | 97.93 | 2.07 | less adsorptive and/or disorptive of moisture |  | +0.7 % w/w | 2680 | 2.7 | stable | 
3 | C/C=C/C=C/C(=O)O.CC(C)(O)Cc1ccc(-c2ccc(C(=O)N3CC[C@H](N)C3)cc2-c2ccc(C#N)c(F)c2)c(F)c1 [sorbic acid salt of Compound A, sorbic acid salt of 4-[5-[(3S)-3-aminopyrrolidine-1-carbonyl]-2-[2-fluoro-4-(2-hydroxy-2-methyl-propyl)phenyl]phenyl]-2-fluoro-benzonitrile] |  |  | −0.64% | +0.64% | stable | 97.99 | 2.01 | 98.63 | 1.37 | less adsorptive and/or disorptive of moisture |  | +1.9 % w/w | 2030 | 2.3 |  | 11.64
